Measured values from patent US7323485B2, “4-(substituted cycloalkylmethyl) imidazole-2-thiones, 4-(substituted cycloalkenylmethyl) imidazole-2-thiones, 4-(substituted cycloalkylmethyl) imidazol-2-ones and 4-(substituted cycloalkenylmethyl) imidazol-2-ones and related compounds” (Allergan, Inc., priority 2002, dated 2008).

How the values were obtained:
[1] = target: T1, alpha2C adrenergic receptors (Homo sapiens, UniProt P18825); experiment: Receptor Selection and Amplification Technology (RSAT) assay, alpha2C; assay type: cell-based; details: for EC50: NA = not active at concentrations less than 10 micromolar, read-out: Alpha 2C EC50; for Alpha 2C intrinsic activity: fraction of maximal effect of standard full agonist brimonidine (UK14304)
T1 construct: expressed in transfected cells; host or cells: NIH-3T3
T1 sequence (P18825 1-462): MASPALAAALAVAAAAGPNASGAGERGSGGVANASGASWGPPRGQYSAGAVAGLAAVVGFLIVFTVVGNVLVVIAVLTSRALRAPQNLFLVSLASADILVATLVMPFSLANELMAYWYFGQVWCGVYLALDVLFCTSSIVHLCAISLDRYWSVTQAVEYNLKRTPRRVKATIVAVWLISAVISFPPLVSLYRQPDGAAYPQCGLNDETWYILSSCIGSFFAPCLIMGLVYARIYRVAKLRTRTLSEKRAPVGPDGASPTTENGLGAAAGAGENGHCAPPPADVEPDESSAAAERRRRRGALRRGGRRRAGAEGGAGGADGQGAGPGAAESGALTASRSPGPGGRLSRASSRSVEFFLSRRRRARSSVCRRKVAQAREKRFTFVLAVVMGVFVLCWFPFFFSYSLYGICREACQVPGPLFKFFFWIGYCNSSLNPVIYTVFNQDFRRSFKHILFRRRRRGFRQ
Text: (§1) The imidazole-2-thione compounds of the invention are agonists of alpha2 adrenergic receptors, particularly they tend to be specific or selective agonists of alpha2B and/or to a lesser extent alpha2C adrenergic receptors, in preference over alpha2A adrenergic receptors. […] Al., 1995, Pharmacol. Toxicol. 76, pp. 308-311 (incorporated herein by reference) and is also described below. Another reference pertinent to this assay is Conklin et al. (1993) Nature 363:274-6, also incorporated herein by reference.
(§2) Receptor Selection and Amplification Technology (RSAT) Assay
(§3) The RSAT assay measures a receptor-mediated loss of contact inhibition that results in selective proliferation of receptor-containing cells in a mixed population of confluent cells. The increase in cell number is assessed with an appropriate transfected marker gene such as β-galactosidase, the activity of which can be easily measured in a 96-well format. Receptors that activate the G protein, Gq, elicit this response. Alpha2 receptors, which normally couple to Gi, activate the RSAT response when coexpressed with a hybrid Gq protein that has a Gi receptor recognition domain, called Gq/i5.
(§4) NIH-3T3 cells are plated at a density of 2×10^6 cells in 15 cm dishes and maintained in Dulbecco's modified Eagle's medium supplemented with 10% calf serum. One day later, cells are cotransfected by calcium phosphate precipitation with mammalian expression plasmids encoding p-SV-β-galactosidase (5-10 μg), receptor (1-2 μg) and G protein (1-2 μg). 40 μg salmon sperm DNA may also be included in the transfection mixture. Fresh media is added on the following day and 1-2 days later, cells are harvested and frozen in 50 assay aliquots. Cells are thawed and 100 μl added to 100 μl aliquots of various concentrations of drugs in triplicate in 96-well dishes. Incubations continue 72-96 hr at 37 EC. After washing with phosphate-buffered saline, β-galactosidase enzyme activity is determined by adding 200 μl of the chromogenic substrate (consisting of 3.5 mM o-nitrophenyl-β-D-galactopyranoside and 0.5% nonidet P-40 in phosphate buffered saline), incubating overnight at 30 EC and measuring optical density at 420 nm. The absorbance is a measure of enzyme activity, which depends on cell number and reflects a receptor-mediated cell proliferation. The EC50 and maximal effect of each drug at each alpha2 receptor is determined. The efficacy or intrinsic activity is calculated as a ratio of the maximal effect of the drug to the maximal effect of a standard full agonist for each receptor subtype. Brimonidine, also called UK14304, the chemical structure of which is shown below, is used as the standard agonist for the alpha2A, alpha2B and alpha2C receptors.
(§5) The results of the RSAT assay with several exemplary compounds of the invention are disclosed in Table 1 above together with the chemical formulas of these examplary compounds. […] NA stands for “not active” at concentrations less than 10 micromolar. As is known EC50 is the concentration at which half of a given compound's maximal activity is observed.

[2] = target: T2, alpha2B adrenergic receptors (Homo sapiens, UniProt P18089); experiment: Receptor Selection and Amplification Technology (RSAT) assay, alpha2B; assay type: cell-based; details: for EC50: NA = not active at concentrations less than 10 micromolar, read-out: Alpha 2B EC50; for Alpha 2B intrinsic activity: fraction of maximal effect of standard full agonist brimonidine (UK14304)
T2 construct: expressed in transfected cells; host or cells: NIH-3T3
T2 sequence (P18089 1-450): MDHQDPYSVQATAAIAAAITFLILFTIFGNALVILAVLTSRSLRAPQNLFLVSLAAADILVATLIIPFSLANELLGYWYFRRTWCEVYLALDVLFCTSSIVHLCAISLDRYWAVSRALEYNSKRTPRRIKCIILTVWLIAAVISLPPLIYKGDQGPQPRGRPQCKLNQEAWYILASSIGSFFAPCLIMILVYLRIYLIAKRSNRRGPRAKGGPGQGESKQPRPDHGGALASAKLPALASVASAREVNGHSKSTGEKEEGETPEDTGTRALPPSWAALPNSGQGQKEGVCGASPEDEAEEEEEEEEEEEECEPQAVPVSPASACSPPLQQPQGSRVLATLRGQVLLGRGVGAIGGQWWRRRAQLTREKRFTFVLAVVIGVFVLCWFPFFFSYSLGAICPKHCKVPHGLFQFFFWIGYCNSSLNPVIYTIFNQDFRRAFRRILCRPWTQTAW
Text: as §1, §2, §3, §4, §5

## CCCC1=C(c2ccc(F)cc2)C(Cc2c[nH]c(=S)[nH]2)CC1 (stereo not drawn)
[1]
  EC50: 57 nM
  Alpha 2C intrinsic activity: 0.5
[2]
  EC50: 603 nM
  Alpha 2B intrinsic activity: 0.98

## S=c1[nH]cc(CC2CCCc3cccc(Cl)c32)[nH]1 (stereo not drawn)
[2]
  EC50: 74 nM
  Alpha 2B intrinsic activity: 0.78

## Fc1ccc2c(c1)C(Cc1c[nH]c(=S)[nH]1)CC2 (stereo not drawn)
[1]
  EC50: 42 nM
  Alpha 2C intrinsic activity: 0.63
[2]
  EC50: 34 nM
  Alpha 2B intrinsic activity: 1.01

## N#C/C=C1/c2ccccc2CCC1Cc1c[nH]c(=S)[nH]1 (stereo not drawn)
[2]
  EC50: 990 nM
  Alpha 2B intrinsic activity: 0.5

## Fc1cc(F)c2c(c1)CC(c1c[nH]c(=S)[nH]1)C2 (stereo not drawn)
[2]
  EC50: 6.5 nM
  Alpha 2B intrinsic activity: 0.81

## S=c1[nH]cc(CC2CCSc3ccccc32)[nH]1 (stereo not drawn)
[2]
  EC50: 286 nM
  Alpha 2B intrinsic activity: 1.16

## S=c1[nH]cc(C2CCc3ccccc3CC2)[nH]1
[2]
  EC50: 17 nM
  Alpha 2B intrinsic activity: 0.82

## S=c1[nH]cc(CC2C=CCCC2)[nH]1 (stereo not drawn)
[1]
  EC50: > 2000 nM
  Alpha 2C intrinsic activity: 0.70
[2]
  EC50: 665 nM
  Alpha 2B intrinsic activity: 1.12

## CCC1=CCC(Cc2c[nH]c(=S)[nH]2)CC1 (stereo not drawn)
[2]
  EC50: 451 nM
  Alpha 2B intrinsic activity: 0.68

## Fc1cc(F)cc(C2=CCC[C@H]2Cc2c[nH]c(=S)[nH]2)c1
[1]
  EC50: 790 nM
  Alpha 2C intrinsic activity: 0.58
[2]
  EC50: 472 nM
  Alpha 2B intrinsic activity: 0.83

## S=c1[nH]cc(CC2CCc3cc(Br)ccc32)[nH]1 (stereo not drawn)
[1]
  Alpha 2C intrinsic activity: 0.62
[2]
  EC50: 158 nM
  Alpha 2B intrinsic activity: 0.85

## S=c1[nH]cc(CC2CCc3ccccc3C2)[nH]1 (stereo not drawn)
[2]
  EC50: 17 nM
  Alpha 2B intrinsic activity: 0.65

## N#C/C=C1\c2ccccc2CCC1Cc1c[nH]c(=S)[nH]1 (stereo not drawn)
[2]
  EC50: 160 nM
  Alpha 2B intrinsic activity: 0.94

## S=c1[nH]cc(CC2CCc3c(Cl)cccc32)[nH]1 (stereo not drawn)
[2]
  EC50: 31.3 nM
  Alpha 2B intrinsic activity: 0.91

## Fc1ccc2c(c1)CC(c1c[nH]c(=S)[nH]1)C2 (stereo not drawn)
[2]
  EC50: 30 nM
  Alpha 2B intrinsic activity: 0.75

## S=c1[nH]cc(C[C@@H]2CCC3=C(CCCC3)C2)[nH]1
[2]
  EC50: 60 nM
  Alpha 2B intrinsic activity: 0.73

## S=c1[nH]cc(CC2CCc3ncccc3C2)[nH]1 (stereo not drawn)
[2]
  EC50: 1590 nM
  Alpha 2B intrinsic activity: 0.74

## S=c1[nH]cc(CC2CCc3cc(Cl)ccc32)[nH]1 (stereo not drawn)
[2]
  EC50: 1150 nM
  Alpha 2B intrinsic activity: 0.37

## S=c1[nH]cc(CC2CCC=C2c2ccccc2)[nH]1 (stereo not drawn)
[1]
  EC50: 214 nM
  Alpha 2C intrinsic activity: 0.68

## Fc1ccc2c(c1F)CCC2Cc1c[nH]c(=S)[nH]1 (stereo not drawn)
[2]
  EC50: 834 nM
  Alpha 2B intrinsic activity: 0.54

## O=C1c2ccccc2CCC1Cc1c[nH]c(=S)[nH]1 (stereo not drawn)
[2]
  EC50: 18 nM
  Alpha 2B intrinsic activity: 1.0

## C#CC1=CCC(Cc2c[nH]c(=S)[nH]2)CC1 (stereo not drawn)
[2]
  EC50: 265 nM
  Alpha 2B intrinsic activity: 0.60

## Fc1cc(F)cc(C2=CCCC2Cc2c[nH]c(=S)[nH]2)c1 (stereo not drawn)
[1]
  EC50: 241 nM
  Alpha 2C intrinsic activity: 0.66

## O=C1c2ccsc2CCC1Cc1c[nH]c(=S)[nH]1 (stereo not drawn)
[2]
  EC50: 106 nM
  Alpha 2B intrinsic activity: 0.97

## CC1=CCC(Cc2c[nH]c(=S)[nH]2)OC1 (stereo not drawn)
[2]
  EC50: 469 nM
  Alpha 2B intrinsic activity: 0.87

## Fc1ccccc1C1=CCCC1Cc1c[nH]c(=S)[nH]1 (stereo not drawn)
[1]
  EC50: 994 nM
  Alpha 2C intrinsic activity: 0.53

## Fc1cccc(C2=CCC[C@@H]2Cc2c[nH]c(=S)[nH]2)c1
[2]
  EC50: 1470 nM
  Alpha 2B intrinsic activity: 0.66

## CC1=CC(Cc2c[nH]c(=S)[nH]2)CC1 (stereo not drawn)
[2]
  EC50: 81 nM
  Alpha 2B intrinsic activity: 0.81

## CC1=C(C)CC(Cc2c[nH]c(=S)[nH]2)CC1 (stereo not drawn)
[2]
  EC50: 25 nM
  Alpha 2B intrinsic activity: 0.61

## S=c1[nH]cc(C[C@H]2CCc3ccccc3C2)[nH]1
[2]
  EC50: 395 nM
  Alpha 2B intrinsic activity: 0.41

## Fc1cccc2c1CCC2Cc1c[nH]c(=S)[nH]1 (stereo not drawn)
[2]
  EC50: 34.5 nM
  Alpha 2B intrinsic activity: 0.93

## O=C1c2ccccc2CC[C@H]1Cc1c[nH]c(=S)[nH]1
[2]
  EC50: 41 nM
  Alpha 2B intrinsic activity: 0.83

## Fc1cccc(C2=CCCC2Cc2c[nH]c(=S)[nH]2)c1 (stereo not drawn)
[1]
  EC50: 191 nM
  Alpha 2C intrinsic activity: 0.45

## Fc1ccc(C2=CCC[C@H]2Cc2c[nH]c(=S)[nH]2)cc1
[1]
  EC50: 715 nM
  Alpha 2C intrinsic activity: 0.61

## S=c1[nH]cc(C2Cc3ccc(Cl)cc3C2)[nH]1 (stereo not drawn)
[2]
  EC50: 57.5 nM
  Alpha 2B intrinsic activity: 0.85

## CC1=CCC(Cc2c[nH]c(=S)[nH]2)CC1 (stereo not drawn)
[2]
  EC50: 61 nM
  Alpha 2B intrinsic activity: 0.72

## S=c1[nH]cc(CC2CCC3=C(CCCC3)C2)[nH]1 (stereo not drawn)
[2]
  EC50: 86 nM
  Alpha 2B intrinsic activity: 0.78

## S=c1[nH]cc(CC2CCc3sccc3C2)[nH]1 (stereo not drawn) [drawing 22]
[2]
  EC50: 14 nM
  Alpha 2B intrinsic activity: 0.74

## CC(C)C1=C(c2ccc(F)cc2)C(Cc2c[nH]c(=S)[nH]2)CC1 (stereo not drawn)
[2]
  EC50: 269 nM
  Alpha 2B intrinsic activity: 0.79

## S=c1[nH]cc(CC2Cc3ccccc3C2)[nH]1
[2]
  EC50: 110 nM
  Alpha 2B intrinsic activity: 0.65

## O=C1c2ccccc2CC[C@@H]1Cc1c[nH]c(=S)[nH]1
[2]
  EC50: 92 nM
  Alpha 2B intrinsic activity: 0.79

## O=C1c2c(Cl)cccc2CCC1Cc1c[nH]c(=S)[nH]1 (stereo not drawn)
[2]
  EC50: 115 nM
  Alpha 2B intrinsic activity: 0.99

## O=C1c2cccnc2CCC1Cc1c[nH]c(=S)[nH]1 (stereo not drawn)
[2]
  EC50: 720 nM
  Alpha 2B intrinsic activity: 0.6

## Cc1ccc(C)c2c1CCC2Cc1c[nH]c(=S)[nH]1 (stereo not drawn)
[2]
  EC50: 105 nM
  Alpha 2B intrinsic activity: 0.64

## O=C1c2ccc(O)cc2CCC1Cc1c[nH]c(=S)[nH]1 (stereo not drawn)
[2]
  EC50: 1010 nM
  Alpha 2B intrinsic activity: 0.48

## S=c1[nH]cc(C[C@@H]2CCc3ccccc3C2)[nH]1
[2]
  EC50: 13.7 nM
  Alpha 2B intrinsic activity: 0.93

## O=C1c2ccccc2CC1Cc1c[nH]c(=S)[nH]1 (stereo not drawn)
[2]
  EC50: 850 nM
  Alpha 2B intrinsic activity: 0.71

## S=c1[nH]cc(C2Cc3ccccc3C2)[nH]1
[2]
  EC50: 6 nM
  Alpha 2B intrinsic activity: 0.98

## Fc1ccc(F)c(C2=CCCC2Cc2c[nH]c(=S)[nH]2)c1 (stereo not drawn)
[1]
  EC50: 430 nM
  Alpha 2C intrinsic activity: 0.38

## O=C1c2ccc(F)cc2CCC1Cc1c[nH]c(=S)[nH]1 (stereo not drawn)
[2]
  EC50: 300 nM
  Alpha 2B intrinsic activity: 0.76

## C[C@@H]1c2ccccc2C[C@H]1c1c[nH]c(=S)[nH]1
[2]
  EC50: 5 nM
  Alpha 2B intrinsic activity: 1.03

## O=C1C2=C(CCCC2)CCC1Cc1c[nH]c(=S)[nH]1 (stereo not drawn)
[2]
  EC50: 815 nM
  Alpha 2B intrinsic activity: 0.83

## CCC1=C(C)CCC(Cc2c[nH]c(=S)[nH]2)C1 (stereo not drawn)
[2]
  EC50: 6 nM
  Alpha 2B intrinsic activity: 1.08

## COc1cc(F)c2c(c1)CC(c1c[nH]c(=S)[nH]1)C2 (stereo not drawn)
[2]
  EC50: 22 nM
  Alpha 2B intrinsic activity: 1.02
